Measured values reported in paper PMC11864945 (Frontiers in Pharmacology, 2025).
Where two headings read alike, the source gives them in different places.

Experiments:
[1] = Stability of the analytes in beagle dog plasma (bench top, refrigerator, freeze–thaw, autosampler, short and long term storage); type: physicochemical; conditions: for Mean stability sample ±SD: n = 5
Procedure: Stability experiments were conducted in working solutions of the analytes and IS for short term stability at 4°C and stock solutions for long term stability at −20°C, respectively. Peak area ratio responses (Analytes/IS) of stored solutions were compared with those of freshly prepared solutions. The acceptance criterion was ±10.0% deviation when comparing the values of fresh solutions. The stabilities of the analytes in beagle dog plasma were evaluated by analyzing five replicates at LQC and HQC levels. Types of stabilities were following as: bench top stability (room temperature), refrigerator stability (4°C), autosampler stability for processed samples (6°C), freeze–thaw stability (−80°C), short term stability (−20°C) and long term (–80°C) storage stability.

[2] = in vivo; conditions: beagle, dog, po; for AUC(0-t): AUC0–30; for AUC(0-inf): AUC0–inf; for k el: Kel (elimination rate constant); for half-life: t1/2 (elimination half–life)
[3] = beagle, dog, in vivo; for AUC0–30 / AUC0–inf / Cmax / Kel (elimination rate constant) / Tmax / t1/2 (elimination half–life): po
[4] = autosampler, 6°C, 55 h, processed plasma samples, HQC
[5] = autosampler, 6°C, 55 h, processed plasma samples, LQC
[6] = bench top, room temperature, 8 h, dog plasma, HQC (added 180 ng/mL PYR/OXF, 675 PRA, 90 FBT, 450 FEN)
[7] = bench top, room temperature, 8 h, dog plasma, HQC, % of nominal concentration
[8] = bench top, room temperature, 8 h, dog plasma, LQC (added 12 ng/mL PYR/OXF, 45 PRA, 6 FBT, 30 FEN)
[9] = bench top, room temperature, 8 h, dog plasma, LQC, % of nominal concentration
[10] = freeze–thaw after 3rd cycle at −80°C, dog plasma, HQC
[11] = freeze–thaw after 3rd cycle at −80°C, dog plasma, LQC
[12] = long term, −80°C, 120 days, dog plasma, HQC
[13] = long term, −80°C, 120 days, dog plasma, LQC
[14] = refrigerator, 4°C, 30 h, dog plasma, HQC
[15] = refrigerator, 4°C, 30 h, dog plasma, LQC
[16] = short term, −20°C, 48 h, dog plasma, HQC
[17] = short term, −20°C, 48 h, dog plasma, LQC

| Compound | Mean stability sample ±SD [1, 4] [ng/mL] | Accuracy [1, 5] [%] | Mean stability sample ±SD [1, 5] [ng/mL] | Mean stability sample ±SD [1, 6] [ng/mL] | Accuracy [1, 7] [%] | Mean stability sample ±SD [1, 8] [ng/mL] | Accuracy [1, 9] [%] | Accuracy [1, 10] [%] | Mean stability sample ±SD [1, 10] [ng/mL] | Accuracy [1, 11] [%] | Mean stability sample ±SD [1, 11] [ng/mL] | Accuracy [1, 12] [%] | Mean stability sample ±SD [1, 12] [ng/mL] | Accuracy [1, 13] [%] | Mean stability sample ±SD [1, 13] [ng/mL] | Accuracy [1, 14] [%] | Mean stability sample ±SD [1, 14] [ng/mL] | Accuracy [1, 15] [%] | Mean stability sample ±SD [1, 15] [ng/mL] | Accuracy [1, 16] [%] | further results |
| --- | --- | --- | --- | --- | --- | --- | --- | --- | --- | --- | --- | --- | --- | --- | --- | --- | --- | --- | --- | --- | --- |
| COC(=O)Nc1nc2ccc(Sc3ccccc3)cc2[nH]1 [Fenbendazole, fenbendazole] | 457.91 ± 24.20 | 100.87 | 30.26 ± 0.97 | 412.09 ± 6.95 | 91.58 | 28.75 ± 0.77 | 95.83 | 99.49 | 447.72 ± 13.36 | 98.82 | 29.65 ± 1.05 | 101.31 | 455.87 ± 11.17 | 102.31 | 30.69 ± 0.89 | 97.40 | 438.32 ± 14.73 | 97.04 | 29.11 ± 1.92 | 104.58 | Mean stability sample ±SD [1, 16]: 470.60 ± 13.89 ng/mL; Accuracy [1, 17]: 103.13%; Mean stability sample ±SD [1, 17]: 30.94 ± 2.18 ng/mL; AUC(0-t) [2]: 1440 ng·h/mL; AUC(0-inf) [2]: 1680 ng·h/mL; k el [2]: 4.44e-05 s⁻¹; Tmax [2]: 5 ± 3.56 h; half-life [2]: 418 ± 500 min; AUC0–30 [3]: 1,689.33 ± 881.68 h. ng/mL; AUC0–inf [3]: 1,893.90 ± 934.66 h ng/mL; Cmax [3]: 212.35 ± 104.41 ng/mL; Kel (elimination rate constant) [3]: 0.15 ± 0.07 h⁻¹; Tmax [3]: 5.20 ± 3.10 h; t1/2 (elimination half–life) [3]: 5.76 ± 3.70 h |
| O=C(C1CCCCC1)N1CC(=O)N2CCc3ccccc3C2C1 (stereo not drawn) [Praziquantel, praziquantel] | 729.27 ± 27.29 | 103.68 | 46.65 ± 1.23 | 645.65 ± 11.69 | 95.65 | 44.28 ± 0.95 | 98.41 | 99.19 | 669.52 ± 14.97 | 98.12 | 44.15 ± 2.42 | 91.14 | 615.17 ± 19.69 | 94.44 | 42.50 ± 4.13 | 96.95 | 654.44 ± 29.69 | 98.16 | 44.17 ± 3.20 | 108.18 | Accuracy [1, 4]: 108.04%; Mean stability sample ±SD [1, 16]: 730.20 ± 19.11 ng/mL; Accuracy [1, 17]: 100.34%; Mean stability sample ±SD [1, 17]: 45.15 ± 3.68 ng/mL; AUC(0-t) [2]: 3320 ng·h/mL; AUC(0-inf) [2]: 3370 ng·h/mL; k el [2]: 0.000122 s⁻¹; Tmax [2]: 1.45 ± 1.05 h; half-life [2]: 99.6 ± 24.6 min; GMR (Test/Reference) of AUC0–30 [3]: 101.83%; GMR (Test/Reference) of AUC0–inf [3]: 101.79%; GMR (Test/Reference) of Cmax [3]: 97.63%; AUC0–30 [3]: 3,267.67 ± 1827.15 h. ng/mL; AUC0–inf [3]: 3,317.89 ± 1838.60 h ng/mL; Cmax [3]: 957.04 ± 537.42 ng/mL; Kel (elimination rate constant) [3]: 0.45 ± 0.12 h⁻¹; Tmax [3]: 1.48 ± 0.67 h; t1/2 (elimination half–life) [3]: 1.65 ± 0.46 h |
